From PMC12136037, “Type II kinase inhibitors that target Parkinson’s disease–associated LRRK2” (Science Advances, 2025)
Read-outs that look alike come from different tables or passages of the source.

What was measured:
Test in all cases: DSF 100 kinase selectivity screen;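 also: compound tested at 20 µM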
Assay type in all cases: binding
[1] = target: T1, ~100 representative kinases (Homo sapiens, UniProt P11362); settings: protein FGFR1; average of three replicates
T1 construct: Recombinant protein kinase domains with a concentration of 2 μM
T1 sequence (P11362 22-822): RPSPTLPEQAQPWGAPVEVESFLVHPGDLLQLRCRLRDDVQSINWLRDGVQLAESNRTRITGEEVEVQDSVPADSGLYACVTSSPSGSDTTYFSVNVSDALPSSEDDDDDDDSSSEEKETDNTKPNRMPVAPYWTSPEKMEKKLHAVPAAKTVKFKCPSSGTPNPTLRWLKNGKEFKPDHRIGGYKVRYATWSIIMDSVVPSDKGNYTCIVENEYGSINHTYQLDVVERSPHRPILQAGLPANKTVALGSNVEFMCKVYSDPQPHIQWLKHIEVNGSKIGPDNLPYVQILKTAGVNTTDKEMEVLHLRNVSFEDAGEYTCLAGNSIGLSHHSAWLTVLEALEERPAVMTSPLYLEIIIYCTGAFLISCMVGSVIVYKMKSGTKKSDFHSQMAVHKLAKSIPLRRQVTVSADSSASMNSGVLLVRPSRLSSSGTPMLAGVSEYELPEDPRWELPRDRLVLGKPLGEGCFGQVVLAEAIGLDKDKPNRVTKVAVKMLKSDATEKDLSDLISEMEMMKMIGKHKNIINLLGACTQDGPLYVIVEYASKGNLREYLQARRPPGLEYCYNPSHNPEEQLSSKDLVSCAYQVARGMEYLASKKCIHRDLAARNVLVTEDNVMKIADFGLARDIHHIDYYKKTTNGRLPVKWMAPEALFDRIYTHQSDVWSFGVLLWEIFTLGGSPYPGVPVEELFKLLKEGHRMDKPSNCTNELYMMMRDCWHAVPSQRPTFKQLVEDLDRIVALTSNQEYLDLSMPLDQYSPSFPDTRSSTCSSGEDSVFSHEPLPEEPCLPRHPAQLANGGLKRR
In short: (§1)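 Each kinase domain, at 2 μM, is mixed with 20 μM test compound and SYPRO Orange in Hepes (20 mM, pH 7.5) with 500 mM NaCl. Temperature is then raised at 3°C/min and fluorescence-monitored unfolding yields the melting temperature change, ΔTm in degrees Celsius.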

[2] = target: T2, ~100 representative kinases (Homo sapiens, UniProt P15056)
T2 construct: Recombinant protein kinase domains with a concentration of 2 μM
T2 sequence (P15056 whole entry, the tested form may be a part): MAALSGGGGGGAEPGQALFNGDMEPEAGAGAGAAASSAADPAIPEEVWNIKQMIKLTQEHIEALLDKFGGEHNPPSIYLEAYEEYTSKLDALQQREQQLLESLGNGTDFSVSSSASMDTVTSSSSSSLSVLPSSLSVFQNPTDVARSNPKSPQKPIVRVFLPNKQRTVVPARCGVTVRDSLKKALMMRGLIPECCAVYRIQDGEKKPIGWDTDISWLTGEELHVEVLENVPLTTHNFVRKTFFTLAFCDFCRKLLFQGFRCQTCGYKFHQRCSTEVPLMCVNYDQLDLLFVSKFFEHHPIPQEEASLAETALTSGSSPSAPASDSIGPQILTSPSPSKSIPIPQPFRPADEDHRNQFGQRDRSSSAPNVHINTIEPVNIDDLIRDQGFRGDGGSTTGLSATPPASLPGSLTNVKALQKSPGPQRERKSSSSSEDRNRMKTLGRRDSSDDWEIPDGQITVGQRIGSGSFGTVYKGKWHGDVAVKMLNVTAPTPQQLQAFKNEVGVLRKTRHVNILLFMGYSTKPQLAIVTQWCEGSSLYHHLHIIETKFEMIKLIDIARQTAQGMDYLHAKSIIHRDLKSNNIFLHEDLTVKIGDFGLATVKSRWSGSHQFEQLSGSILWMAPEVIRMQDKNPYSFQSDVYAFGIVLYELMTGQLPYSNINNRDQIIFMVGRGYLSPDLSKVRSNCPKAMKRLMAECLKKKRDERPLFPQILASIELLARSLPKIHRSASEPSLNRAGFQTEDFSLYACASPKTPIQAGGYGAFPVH
In short: as §1

[3] = target: T3, ~100 representative kinases (Homo sapiens, UniProt P24941); settings: Protein CDK2; average of three replicates
T3 construct: Recombinant protein kinase domains with a concentration of 2 μM
In short: as §1

[4] = target: T4, ~100 representative kinases (Homo sapiens, UniProt P28482); settings: protein MAPK1; average of three replicates
T4 construct: Recombinant protein kinase domains with a concentration of 2 μM
T4 sequence (P28482 whole entry, the tested form may be a part): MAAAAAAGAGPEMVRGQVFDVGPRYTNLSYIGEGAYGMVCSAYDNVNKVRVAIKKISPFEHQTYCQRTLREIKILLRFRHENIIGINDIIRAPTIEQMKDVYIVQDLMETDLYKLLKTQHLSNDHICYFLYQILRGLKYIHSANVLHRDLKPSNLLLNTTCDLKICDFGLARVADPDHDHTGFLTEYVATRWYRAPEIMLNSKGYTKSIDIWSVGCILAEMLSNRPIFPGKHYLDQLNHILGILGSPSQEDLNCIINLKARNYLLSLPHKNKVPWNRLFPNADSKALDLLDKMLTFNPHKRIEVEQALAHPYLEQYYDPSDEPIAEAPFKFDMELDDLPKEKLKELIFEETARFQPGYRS
In short: as §1

[5] = target: T5, ~100 representative kinases (Homo sapiens, UniProt P33981); settings: Protein TTK; DSF; average of three replicates
T5 construct: Recombinant protein kinase domains with a concentration of 2 μM
T5 sequence (P33981 1-857): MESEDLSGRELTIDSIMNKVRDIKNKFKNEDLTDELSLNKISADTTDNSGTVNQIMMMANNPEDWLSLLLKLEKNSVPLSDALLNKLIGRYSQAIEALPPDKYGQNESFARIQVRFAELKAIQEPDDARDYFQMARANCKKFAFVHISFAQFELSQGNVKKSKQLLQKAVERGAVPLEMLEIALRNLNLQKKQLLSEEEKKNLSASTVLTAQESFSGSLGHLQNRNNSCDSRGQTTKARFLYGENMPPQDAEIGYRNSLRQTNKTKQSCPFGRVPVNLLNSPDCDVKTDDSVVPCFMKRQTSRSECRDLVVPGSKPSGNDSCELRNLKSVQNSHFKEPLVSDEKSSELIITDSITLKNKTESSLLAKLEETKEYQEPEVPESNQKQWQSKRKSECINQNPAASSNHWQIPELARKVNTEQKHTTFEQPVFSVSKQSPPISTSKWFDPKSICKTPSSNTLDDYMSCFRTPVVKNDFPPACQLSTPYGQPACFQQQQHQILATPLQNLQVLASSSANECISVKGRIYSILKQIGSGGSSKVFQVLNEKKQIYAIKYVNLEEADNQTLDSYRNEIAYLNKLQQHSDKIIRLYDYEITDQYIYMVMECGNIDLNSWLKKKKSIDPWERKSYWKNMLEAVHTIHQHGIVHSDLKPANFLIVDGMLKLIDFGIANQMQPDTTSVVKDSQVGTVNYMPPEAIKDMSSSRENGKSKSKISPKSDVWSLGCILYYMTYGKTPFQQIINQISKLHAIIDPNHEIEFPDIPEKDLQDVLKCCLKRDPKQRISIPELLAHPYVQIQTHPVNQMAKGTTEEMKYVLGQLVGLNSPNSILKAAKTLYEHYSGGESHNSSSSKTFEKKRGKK
In short: as §1

[6] = target: T6, ~100 representative kinases (Homo sapiens, UniProt Q09013); settings: Protein DMPK1; average of three replicates
T6 construct: Recombinant protein kinase domains with a concentration of 2 μM
T6 sequence (Q09013 1-629): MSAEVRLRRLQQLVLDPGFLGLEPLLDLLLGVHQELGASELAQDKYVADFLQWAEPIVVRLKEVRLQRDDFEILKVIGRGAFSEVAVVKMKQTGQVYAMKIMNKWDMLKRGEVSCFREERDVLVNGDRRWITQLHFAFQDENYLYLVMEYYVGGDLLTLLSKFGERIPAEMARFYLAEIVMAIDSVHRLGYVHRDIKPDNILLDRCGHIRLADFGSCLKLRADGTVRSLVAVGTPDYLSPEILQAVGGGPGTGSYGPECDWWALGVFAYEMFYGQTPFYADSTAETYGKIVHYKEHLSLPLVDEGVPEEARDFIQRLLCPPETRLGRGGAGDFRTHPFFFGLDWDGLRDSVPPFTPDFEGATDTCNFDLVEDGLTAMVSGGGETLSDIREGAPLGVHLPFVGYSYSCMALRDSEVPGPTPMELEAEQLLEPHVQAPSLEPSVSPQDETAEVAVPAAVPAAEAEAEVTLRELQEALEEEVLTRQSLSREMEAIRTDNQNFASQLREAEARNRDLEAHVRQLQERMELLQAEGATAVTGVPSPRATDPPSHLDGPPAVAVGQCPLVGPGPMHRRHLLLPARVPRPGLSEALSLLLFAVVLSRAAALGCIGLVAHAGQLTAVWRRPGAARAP
In short: as §1

[7] = target: T7, ~100 representative kinases (Homo sapiens, UniProt Q14680); settings: protein MELK; average of three replicates
T7 construct: Recombinant protein kinase domains with a concentration of 2 μM
T7 sequence (Q14680 whole entry, the tested form may be a part): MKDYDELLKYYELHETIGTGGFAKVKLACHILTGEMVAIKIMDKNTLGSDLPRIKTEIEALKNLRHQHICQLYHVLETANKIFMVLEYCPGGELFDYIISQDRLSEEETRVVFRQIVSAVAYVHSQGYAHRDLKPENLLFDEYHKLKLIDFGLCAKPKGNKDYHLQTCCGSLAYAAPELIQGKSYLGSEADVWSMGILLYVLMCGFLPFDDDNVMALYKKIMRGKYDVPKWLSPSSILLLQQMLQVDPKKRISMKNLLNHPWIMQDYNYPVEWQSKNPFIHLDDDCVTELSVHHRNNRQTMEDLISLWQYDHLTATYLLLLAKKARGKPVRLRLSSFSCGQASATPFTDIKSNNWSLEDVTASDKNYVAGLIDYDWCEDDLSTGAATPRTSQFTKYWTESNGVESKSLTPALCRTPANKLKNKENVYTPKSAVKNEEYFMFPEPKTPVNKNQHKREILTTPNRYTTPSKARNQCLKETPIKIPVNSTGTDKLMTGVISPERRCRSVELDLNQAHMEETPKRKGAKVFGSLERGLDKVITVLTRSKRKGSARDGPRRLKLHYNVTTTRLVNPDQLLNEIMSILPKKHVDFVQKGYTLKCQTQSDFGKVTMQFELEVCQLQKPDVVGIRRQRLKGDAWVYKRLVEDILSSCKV
In short: as §1

[8] = target: T8, ~100 representative kinases (Homo sapiens, UniProt Q96SB4); settings: Protein SRPK1; DSF; average of three replicates
T8 construct: Recombinant protein kinase domains with a concentration of 2 μM
T8 sequence (Q96SB4 whole entry, the tested form may be a part): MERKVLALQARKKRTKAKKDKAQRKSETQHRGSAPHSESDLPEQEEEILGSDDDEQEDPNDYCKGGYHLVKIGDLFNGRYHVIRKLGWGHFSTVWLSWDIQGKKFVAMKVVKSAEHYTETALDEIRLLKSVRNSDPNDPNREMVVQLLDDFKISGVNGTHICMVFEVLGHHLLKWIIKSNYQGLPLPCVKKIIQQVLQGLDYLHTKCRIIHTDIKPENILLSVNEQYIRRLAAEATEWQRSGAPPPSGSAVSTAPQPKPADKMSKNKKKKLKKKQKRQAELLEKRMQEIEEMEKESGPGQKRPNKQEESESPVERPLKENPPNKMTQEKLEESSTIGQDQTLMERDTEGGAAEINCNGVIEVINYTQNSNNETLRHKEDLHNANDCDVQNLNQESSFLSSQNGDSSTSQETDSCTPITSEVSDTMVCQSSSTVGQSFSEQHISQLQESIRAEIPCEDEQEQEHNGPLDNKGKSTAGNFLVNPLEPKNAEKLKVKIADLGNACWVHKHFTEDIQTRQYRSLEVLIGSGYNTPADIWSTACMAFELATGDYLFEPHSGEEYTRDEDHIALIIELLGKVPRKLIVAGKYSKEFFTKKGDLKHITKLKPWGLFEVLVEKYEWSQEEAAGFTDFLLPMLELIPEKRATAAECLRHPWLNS
In short: as §1

[9] = Protein BRAF, average of three replicates

dTm [1] [K] | dTm [2, 9] [K] | dTm [3] [K] | dTm [4] [K] | dTm [5] [K] | dTm [6] [K] | dTm [7] [K] | dTm [8] [K] | Structure (SMILES) | dTm [2] [K]
1.76 | 4.38 | 2.43 | -0.85 | 1.71 | -0.66 | 2.26 | 7.78 | CC(=O)N1CCN(c2nc(Cl)nc3[nH]cc(-c4cccc(NC(=O)Nc5cc(C(C)(C)C)nn5-c5ccc(C)cc5)c4)c23)CC1 [Compound 31] | –
0.99 | 9.02 | 3.97 | -0.03 | 6.98 | -0.0242 | 13.99 | 4.06 | O=C(Nc1cccc(-c2c[nH]c3ncnc(N4CCOCC4)c23)c1)C1(C(=O)Nc2ccc(F)c(Br)c2F)CC1 [Compound 26] | –
0.09 | 0.14 | -0.37 | 0.14 | 7.87 | 0.0114 | 0.45 | 0.39 | COc1cc(S(C)(=O)=O)ccc1Nc1nc(N(C)C)c2c(Cl)c[nH]c2n1 [Compound 37] | –
1.14 | 9.00 | 3.56 | -0.16 | -5.86 | -0.57 | 13.56 | 6.35 | O=C(Nc1cccc(-c2c[nH]c3ncnc(N4CCOCC4)c23)c1)C1(C(=O)Nc2ccc(F)cc2F)CC1 [Compound 23] | –
0.52 | 10.02 | 4.66 | 1.31 | 6.04 | -0.08 | 10.76 | 6.49 | O=C(Nc1cccc(-c2c[nH]c3ncnc(N4CCOCC4)c23)c1)C1(C(=O)Nc2cccc3c2CCC3)CC1 [Compound 11] | –
1.41 | 6.85 | 3.53 | 0.22 | 7.12 | -0.21 | 12.58 | 7.66 | O=C(Nc1ccccc1)C1(C(=O)Nc2cccc(-c3c[nH]c4ncnc(N5CCOCC5)c34)c2)CC1 [Compound 12] | –
-0.10 | -0.49 | -0.66 | 1.60 | 10.39 | 0.30 | 1.11 | 3.22 | COc1cc(C(=O)N2CCOCC2)c(F)cc1Nc1nc(N(C)C)c2c(Cl)c[nH]c2n1 [Compound 36] | –
8.37 | 32.83 | 14.76 | 0.09 | 7.28 | -2.53 | 2.71 | 16.05 | CC(C)(C)c1cc(NC(=O)Nc2cccc(-c3c[nH]c4ncnc(N5CCOCC5)c34)c2)n(-c2ccc3ncccc3c2)n1 [Compound 28] | –
2.20 | 10.73 | 6.75 | 0.11 | 8.02 | -0.69 | 13.04 | 12.10 | O=C(Nc1cccc(-c2c[nH]c3ncnc(N4CCOCC4)c23)c1)C1(C(=O)Nc2ccc(F)c(Cl)c2)CC1 [Compound 18] | –
2.59 | 35.22 | 3.53 | 0.68 | 0.00 | 0.98 | 8.08 | 15.50 | Cc1ccc(C(=O)Nc2ccc(CN3CCN(C)CC3)c(C(F)(F)F)c2)cc1C#Cc1c[nH]c2ncnc(N3CCOCC3)c12 [Compound 1] | –
1.11 | 7.80 | 5.91 | -0.20 | 6.18 | -0.94 | 14.46 | 8.69 | O=C(Nc1cccc(-c2c[nH]c3ncnc(N4CCOCC4)c23)c1)C1(C(=O)Nc2ccc(F)c(F)c2)CC1 [Compound 17] | –
1.26 | 13.24 | 7.42 | -0.09 | 9.93 | -0.17 | 17.38 | 7.58 | O=C(Nc1cccc(-c2c[nH]c3ncnc(N4CCOCC4)c23)c1)C1(C(=O)Nc2ccc(F)c(Br)c2)CC1 [Compound 19] | –
2.46 | 13.62 | 8.50 | 0.024 | 8.62 | -1.17 | 17.51 | 13.77 | Cc1cc(NC(=O)C2(C(=O)Nc3cccc(-c4c[nH]c5ncnc(N6CCOCC6)c45)c3)CC2)ccc1F [Compound 20] | –

Structure (SMILES) | dTm [1] [K] | dTm [2, 9] [K] | dTm [3] [K] | dTm [4] [K] | dTm [5] [K] | dTm [6] [K] | dTm [7] [K] | dTm [8] [K] | dTm [2] [K]
COc1cc2c(Oc3ccc(NC(=O)C4(C(=O)Nc5ccc(F)cc5)CC4)cc3F)ccnc2cc1OCCCN1CCOCC1 [Foretinib, reference compound] | 5.33 | 6.96 | 0.40 | 0.0844 | 2.21 | -0.67 | 7.59 | 7.77 | –
C[C@@H]1CN(c2cc(-c3n[nH]c4ccc(OC5(C)CC5)cc34)ncn2)C[C@H](C)O1 [MLi2] | -0.19 | 0.50 | -0.0213 | 0.49 | 5.63 | 0.14 | 0.47 | 0.11 | –
Cn1cc(-c2c[nH]c3ncnc(N4CCOCC4)c23)cc1C#N [PFE-360] | 0.13 | 2.10 | 0.68 | 0.55 | 0.43 | 1.66 | 5.72 | -0.23 | –
Cc1ccc(C(=O)Nc2ccc(CN3CCN(C)CC3)c(C(F)(F)F)c2)cc1C#Cc1cnc2[nH]ncc2c1 [GZD-824, reference compound] | 12.20 | – | 4.99 | 0.87 | 4.08 | 3.13 | 5.45 | 13.60 | 38.00
